Earlier results on 1 compound are cited in article PMC7993281 (Clinical and Translational Science, 2020).

The data set deals with plasma GlcCer. Conditions: healthy subjects; cited from earlier work.

With `CC(C)(NC(=O)O[C@@H]1CN2CCC1CC2)c1csc(-c2ccc(F)cc2)n1` [venglustat], the “decrease of plasma GlcCer” value is recorded as “up to 80%”.
